{"source": "patent US20140173780A1", "about": "“SOYBEAN TRAN[…] EFFICIENT AND HIGH-[…] PRODUCTION” (DOW AGROSCIENCES LLC, priority 2012, published 2014)", "test_system": "un-transformed soybean explants", "experiment": "Glyphosate dose response study on un-transformed soybean explants in tissue culture media", "assay_type": "in vivo, soybean (Glycine max)", "settings": "for Number of Explants at Various Stages of Selection: SE-1 / Number of Explants at Various Stages of Selection: SE-2 / Number of Explants at Various Stages of Selection: SI-2 / Number of Explants at Various Stages of Selection: End of SE-2: 49 explants at CC; for Number of Explants at Various Stages of Selection: End of SE-2: six weeks on selection", "experimental": "Initially, a dose response study was completed. To test the effect of glyphosate on the explants, glyphosate was added to media used from the shoot initiation stage and onwards. Glyphosate was tested from the range of 0.025-0.2 mM. Incorporation of glyphosate in tissue culture media within this concentration range has been reported in soybean (Clemente et al., 2000; Hinchee et al., 1996; Martinell et al., 2006; Martinell et al., 1999; Martinell et al., 2002), tobacco (Singer et al., 1985), cotton (Zhao et al., 2006) and wheat (Hu et al., 2003). Five concentrations of glyphosate were tested for culturing of un-transformed soybean explants. The concentrations incorporated into the SI-2 media were 0.025 mM, 0.05 mM, 0.075 mM, 0.1 mM and 0.2 mM. The un-transformed soybean explants were maintained on the same rate of glyphosate selection for all the successive stages of subculture from SI-2 media to the completion of the tissue culturing protocol. The numbers of healthy explants were counted at each subculture stage. Dead explants were discarded and healthy explants were subcultured further onto appropriate media.\nGrowth of the explants was also retarded on glyphosate containing media. Next the cotyledons were removed and the explants were subcultured from SI-2 to SE media. At the end of another two weeks of selection on SE media, significant differences in the growth of the explants were observed when the explants were exposed to different levels of glyphosate. The retarded growth of the explants was proportionate to the increasing dose of glyphosate. Similarly the number of dead explants was also proportional to the increasing dose of glyphosate. The number of dead explants increased as the dose of glyphosate was increased. […] Subsequently, three different concentrations of glyphosate (e.g., 0.025 mM, 0.05 mM and 0.1 mM) were incorporated into the selection schemes for Agrobacterium-mediated transformation of the soybean split-seed explants comprising a portion of an embryonic axis.", "key": {"[1]": {"settings": "0.025 mM glyphosate in media from SI-2 onwards"}, "[2]": {"settings": "0.05 mM glyphosate in media from SI-2 onwards"}, "[3]": {"settings": "0.075 mM glyphosate in media from SI-2 onwards"}, "[4]": {"settings": "0.1 mM glyphosate in media from SI-2 onwards"}, "[5]": {"settings": "0.2 mM glyphosate in media from SI-2 onwards"}}}
{"molecule": "O=C(O)CNCP(=O)(O)O", "note": "[Glyphosate, glyphosate]", "values": [{"measurement": "Number of Explants at Various Stages of Selection: SE-1", "setting": "[1]", "result": 41}, {"measurement": "Number of Explants at Various Stages of Selection: SE-2", "setting": "[1]", "result": 38}, {"measurement": "Number of Explants at Various Stages of Selection: SI-2", "setting": "[1]", "result": 43}, {"measurement": "Number of Explants at Various Stages of Selection: End of SE-2", "setting": "[1]", "result": "none of the soybean explants were able to survive"}, {"measurement": "Number of Explants at Various Stages of Selection: SE-1", "setting": "[2]", "result": 45}, {"measurement": "Number of Explants at Various Stages of Selection: SE-2", "setting": "[2]", "result": 38}, {"measurement": "Number of Explants at Various Stages of Selection: SI-2", "setting": "[2]", "result": 45}, {"measurement": "Number of Explants at Various Stages of Selection: End of SE-2", "setting": "[2]", "result": 0}, {"measurement": "Number of Explants at Various Stages of Selection: SE-1", "setting": "[3]", "result": 45}, {"measurement": "Number of Explants at Various Stages of Selection: SE-2", "setting": "[3]", "result": 21}, {"measurement": "Number of Explants at Various Stages of Selection: SI-2", "setting": "[3]", "result": 47}, {"measurement": "Number of Explants at Various Stages of Selection: End of SE-2", "setting": "[3]", "result": 0}, {"measurement": "Number of Explants at Various Stages of Selection: SE-1", "setting": "[4]", "result": 41}, {"measurement": "Number of Explants at Various Stages of Selection: SE-2", "setting": "[4]", "result": 13}, {"measurement": "Number of Explants at Various Stages of Selection: SI-2", "setting": "[4]", "result": 44}, {"measurement": "Number of Explants at Various Stages of Selection: End of SE-2", "setting": "[4]", "result": 0}, {"measurement": "Number of Explants at Various Stages of Selection: SE-1", "setting": "[5]", "result": 31}, {"measurement": "Number of Explants at Various Stages of Selection: SE-2", "setting": "[5]", "result": 1}, {"measurement": "Number of Explants at Various Stages of Selection: SI-2", "setting": "[5]", "result": 42}, {"measurement": "Number of Explants at Various Stages of Selection: SE-2", "setting": "0.2 mM glyphosate in media from SI-2 onwards, listed as glyphosate", "result": "only one explants survived"}, {"measurement": "Number of Explants at Various Stages of Selection: End of SE-2", "setting": "[5]", "result": 0}, {"measurement": "yellowing of the cotyledons", "setting": "end of culturing on SI-2 media (about 2 weeks), 0.025-0.2 mM glyphosate, extent proportional to dose", "result": "explants showed yellowing of the cotyledons"}, {"measurement": "growth of the explants", "setting": "glyphosate containing media, 0.025-0.2 mM, proportionate to dose", "result": "retarded"}]}
